In the NIST ThermoML archive (doi:10.1021/je401036f):

Assay: refractive index (Na D-line) (dimensionless); xn = mol fraction of the nth substance listed
Conditions: 101 kPa, Liquid, Standard Abbe refractometry

CC(O)CN (stereo not given) [1-amino-2-propanol] + CCC(C)O
refractive index
Conditions | 288.15 K | 293.15 K | 298.15 K | 303.15 K | 308.15 K | 313.15 K | 318.15 K | 323.15 K | 328.15 K | 333.15 K
x1 = 0.1003 | 1.4039 | 1.4018 | 1.3996 | 1.3974 | 1.3952 | 1.3929 | 1.3905 | 1.3881 | 1.3857 | 1.3832
x1 = 0.2005 | 1.4082 | 1.4062 | 1.404 | 1.4019 | 1.3996 | 1.3974 | 1.3951 | 1.3928 | 1.3905 | 1.3881
x1 = 0.3 | 1.4128 | 1.4107 | 1.4086 | 1.4065 | 1.4043 | 1.4021 | 1.3999 | 1.3977 | 1.3955 | 1.3932
x1 = 0.3999 | 1.4177 | 1.4156 | 1.4135 | 1.4114 | 1.4093 | 1.4071 | 1.4049 | 1.4028 | 1.4006 | 1.3983
x1 = 0.5 | 1.4228 | 1.4207 | 1.4186 | 1.4165 | 1.4144 | 1.4123 | 1.4102 | 1.408 | 1.4059 | 1.4036
x1 = 0.6001 | 1.428 | 1.4259 | 1.4239 | 1.4218 | 1.4197 | 1.4176 | 1.4154 | 1.4133 | 1.4112 | 1.409
x1 = 0.7 | 1.4332 | 1.4312 | 1.4292 | 1.4271 | 1.425 | 1.4229 | 1.4208 | 1.4187 | 1.4166 | 1.4144
x1 = 0.8 | 1.4386 | 1.4366 | 1.4345 | 1.4325 | 1.4304 | 1.4284 | 1.4263 | 1.4242 | 1.4221 | 1.42
x1 = 0.8999 | 1.4442 | 1.4422 | 1.4402 | 1.4382 | 1.4362 | 1.4342 | 1.4322 | 1.4302 | 1.4281 | 1.426
x1 = 1 | 1.45 | 1.448 | 1.446 | 1.444 | 1.4419 | 1.4399 | 1.4378 | 1.4358 | 1.4337 | 1.4315

CC(O)CN (stereo not given) [1-amino-2-propanol] + CCCCO
refractive index
Conditions | 288.15 K | 293.15 K | 298.15 K | 303.15 K | 308.15 K | 313.15 K | 318.15 K | 323.15 K | 328.15 K | 333.15 K
x1 = 0.1 | 1.4058 | 1.4038 | 1.4018 | 1.3998 | 1.3977 | 1.3956 | 1.3934 | 1.3913 | 1.3892 | 1.387
x1 = 0.2005 | 1.4104 | 1.4084 | 1.4064 | 1.4043 | 1.4022 | 1.4001 | 1.398 | 1.3958 | 1.3937 | 1.3915
x1 = 0.3 | 1.4151 | 1.413 | 1.411 | 1.4089 | 1.4068 | 1.4047 | 1.4026 | 1.4005 | 1.3983 | 1.3961
x1 = 0.3999 | 1.4198 | 1.4178 | 1.4157 | 1.4136 | 1.4115 | 1.4094 | 1.4073 | 1.4051 | 1.403 | 1.4008
x1 = 0.5 | 1.4246 | 1.4226 | 1.4205 | 1.4184 | 1.4163 | 1.4142 | 1.4121 | 1.4099 | 1.4078 | 1.4056
x1 = 0.6001 | 1.4295 | 1.4275 | 1.4254 | 1.4234 | 1.4213 | 1.4191 | 1.417 | 1.4149 | 1.4128 | 1.4106
x1 = 0.7 | 1.4345 | 1.4324 | 1.4304 | 1.4283 | 1.4262 | 1.4242 | 1.4221 | 1.42 | 1.4178 | 1.4156
x1 = 0.8 | 1.4395 | 1.4375 | 1.4354 | 1.4334 | 1.4313 | 1.4292 | 1.4272 | 1.425 | 1.4229 | 1.4208
x1 = 0.8997 | 1.4446 | 1.4426 | 1.4406 | 1.4385 | 1.4365 | 1.4344 | 1.4324 | 1.4303 | 1.4282 | 1.426
x1 = 1 | 1.45 | 1.448 | 1.446 | 1.444 | 1.4419 | 1.4399 | 1.4378 | 1.4358 | 1.4337 | 1.4315
